# Tested on: T24 cell line
# Assay: Cytotoxicity MTS assay, T24 cell line
# Format: cell-based
# Details: for IC50: MTS assay, 24 h exposure; for OD490 Mean / OD490 Well 1 / OD490 Well 2 / OD490 Well 3: T24 cell line
# Protocol: The positive compounds (IC50 < 100 μM) obtained from the primary Eg5 motor protein ATPase assay were tested for antiproliferative activity in vitro against Caco-2 cell line, Hela cell line, L929 cell line and T24 cell line by performing MTS assay. Cells were introduced into 96-well plates at a density of 1000 cells per well. After 24 h incubation, the cells were exposed with compounds at final concentrations ranging from 0.5 to 100 µM for 24 h. DMSO was used at a final concentration of 0.025% as blank control, monastrol was used as the positive control. Then 20 µL (CellTiter 96® AQueous One Solution Promega, Madison, WI, USA) reagent was added in each well. After 2 h at 37 °C in a 80% humidified, 5% CO2 atmosphere, the absorbance at 490 nm was recorded using a microplate reader (BIO-RAD iMark^TM). The results were obtained in three independent duplicate experiments. The primary data were shown in Supplementary Materials Tables S4–S7. The IC50 values for these compounds were calculated from a non-linear regression graph plotted between the percentage of cell viability and concentration with SPSS17.0 software.
compound,measurement,setting,value
CCOC(=O)c1[nH]c(C2NC(=O)NC(C)=C2C(=O)Nc2ccccc2OC)c(C(=O)OC)c1C (centres unmarked) [D3],IC50,,> 150 µM
same,OD490 Mean,"0.5μM, first assay",1.8317
same,OD490 Well 1,"0.5μM, first assay",1.9267
same,OD490 Well 2,"0.5μM, first assay",1.7284
same,OD490 Well 3,"0.5μM, first assay",1.8399
same,OD490 Mean,"1μM, first assay",1.4215
same,OD490 Well 1,"1μM, first assay",1.4512
same,OD490 Well 2,"1μM, first assay",1.4430
same,OD490 Well 3,"1μM, first assay",1.3702
same,OD490 Mean,"10μM, first assay",1.5897
same,OD490 Well 1,"10μM, first assay",1.3957
same,OD490 Well 2,"10μM, first assay",1.6776
same,OD490 Well 3,"10μM, first assay",1.6957
same,OD490 Mean,"25μM, first assay",1.4932
same,OD490 Well 1,"25μM, first assay",1.4267
same,OD490 Well 2,"25μM, first assay",1.6194
same,OD490 Well 3,"25μM, first assay",1.4336
same,OD490 Mean,"50μM, first assay",1.4228
same,OD490 Well 1,"50μM, first assay",1.3624
same,OD490 Well 2,"50μM, first assay",1.4440
same,OD490 Well 3,"50μM, first assay",1.4620
same,OD490 Mean,"100μM, first assay",1.3750
same,OD490 Well 1,"100μM, first assay",1.3903
same,OD490 Well 2,"100μM, first assay",1.4568
same,OD490 Well 3,"100μM, first assay",1.2780
CCOC(=O)c1c(C2NC(=O)NC(C)=C2C(=O)Nc2ccccc2C)[nH]c(C(=O)OC)c1C (centres unmarked) [D2],IC50,,> 150 µM
same,OD490 Mean,"0.5μM, first assay",1.8524
same,OD490 Well 1,"0.5μM, first assay",1.8720
same,OD490 Well 2,"0.5μM, first assay",1.7367
same,OD490 Well 3,"0.5μM, first assay",1.9486
same,OD490 Mean,"0.5μM, second assay",1.7337
same,OD490 Well 1,"0.5μM, second assay",1.7425
same,OD490 Well 2,"0.5μM, second assay",1.7320
same,OD490 Well 3,"0.5μM, second assay",1.7265
same,OD490 Mean,"1μM, first assay",1.8992
same,OD490 Well 1,"1μM, first assay",1.8529
same,OD490 Well 2,"1μM, first assay",2.1141
same,OD490 Well 3,"1μM, first assay",1.7306
same,OD490 Mean,"1μM, second assay",1.7313
same,OD490 Well 1,"1μM, second assay",1.6985
same,OD490 Well 2,"1μM, second assay",1.7321
same,OD490 Well 3,"1μM, second assay",1.7632
same,OD490 Mean,"10μM, first assay",1.7422
same,OD490 Well 1,"10μM, first assay",1.5585
same,OD490 Well 2,"10μM, first assay",1.7096
same,OD490 Well 3,"10μM, first assay",1.9584
same,OD490 Mean,"10μM, second assay",1.7005
same,OD490 Well 1,"10μM, second assay",1.6985
same,OD490 Well 2,"10μM, second assay",1.7032
same,OD490 Well 3,"10μM, second assay",1.6999
same,OD490 Mean,"25μM, first assay",1.5770
same,OD490 Well 1,"25μM, first assay",1.7779
same,OD490 Well 2,"25μM, first assay",1.7471
same,OD490 Well 3,"25μM, first assay",1.2060
same,OD490 Mean,"25μM, second assay",1.7524
same,OD490 Well 1,"25μM, second assay",1.7747
same,OD490 Well 2,"25μM, second assay",1.7842
same,OD490 Well 3,"25μM, second assay",1.6982
same,OD490 Mean,"50μM, first assay",1.5326
same,OD490 Well 1,"50μM, first assay",1.7713
same,OD490 Well 2,"50μM, first assay",1.4256
same,OD490 Well 3,"50μM, first assay",1.4009
same,OD490 Mean,"50μM, second assay",1.6946
same,OD490 Well 1,"50μM, second assay",1.6524
same,OD490 Well 2,"50μM, second assay",1.6895
same,OD490 Well 3,"50μM, second assay",1.7420
same,OD490 Mean,"100μM, first assay",1.5388
same,OD490 Well 1,"100μM, first assay",1.4456
same,OD490 Well 2,"100μM, first assay",1.6062
same,OD490 Well 3,"100μM, first assay",1.5646
same,OD490 Mean,"100μM, second assay",1.4712
same,OD490 Well 1,"100μM, second assay",1.4274
same,OD490 Well 2,"100μM, second assay",1.5020
same,OD490 Well 3,"100μM, second assay",1.4842
